These results are taken from the OligoGym collection.

HELM strings list units from the 5' end as sugar, base in round brackets, then linkage (d deoxyribose, r ribose, m 2'-O-methyl, p phosphodiester). [sp] = phosphorothioate linkage

Data set [1] addresses CDKN2B-AS1. Nature of the data set: HEK293-TLR7, 100 nM ASO, then resiquimod.
Data set [2] deals with CDKN2B-AS1. Put plainly: HEK293-TLR8, 100 nM ASO, then resiquimod.

On to “RNA1{m(A)[sp].m(A)[sp].m(A)[sp].m(G)[sp].m(C)[sp].d(A)[sp].d(G)[sp].d(T)[sp].d(C)[sp].d(T)[sp].d(C)[sp].d(C)[sp].d(A)[sp].d(T)[sp].d(G)[sp].m(U)[sp].m(C)[sp].m(C)[sp].m(C)[sp].m(A)}$$$$”, for which the TLR7 signal (NF-kB luciferase) (% of resiquimod alone) in data set [1] was found to be 27.2. In addition, the TLR8 potentiation (NF-kB luciferase) (fold of resiquimod alone) in data set [2] turned out to be 1.9.
The substance “RNA1{m(A)[sp].m(A)[sp].m(U)[sp].m(A)[sp].m(U)[sp].d(C)[sp].d(T)[sp].d(G)[sp].d(C)[sp].d(T)[sp].d(G)[sp].d(C)[sp].d(C)[sp].d(C)[sp].d(A)[sp].m(C)[sp].m(C)[sp].m(U)[sp].m(U)[sp].m(C)}$$$$” displayed a TLR7 signal (NF-kB luciferase) (% of resiquimod alone) in data set [1] of 43.7. In addition, in data set [2], the TLR8 potentiation (NF-kB luciferase) (fold of resiquimod alone) came out at 1.79.
“RNA1{m(U)[sp].m(U)[sp].m(A)[sp].m(A)[sp].m(A)[sp].d(T)[sp].d(A)[sp].d(A)[sp].d(T)[sp].d(C)[sp].d(T)[sp].d(A)[sp].d(G)[sp].d(T)[sp].d(T)[sp].m(U)[sp].m(G)[sp].m(A)[sp].m(A)[sp].m(G)}$$$$”: the TLR7 signal (NF-kB luciferase) (% of resiquimod alone) in data set [1] came to 25.7. In data set [2], the TLR8 potentiation (NF-kB luciferase) (fold of resiquimod alone) was 3.96.
Taken in the same sequence, the figures for “RNA1{m(A)[sp].m(A)[sp].m(A)[sp].m(A)[sp].m(G)[sp].d(A)[sp].d(T)[sp].d(T)[sp].d(A)[sp].d(T)[sp].d(C)[sp].d(T)[sp].d(T)[sp].d(C)[sp].d(T)[sp].m(U)[sp].m(U)[sp].m(U)[sp].m(A)[sp].m(A)}$$$$” were 47.4 and 3.19.
For “RNA1{m(A)[sp].m(G)[sp].m(U)[sp].m(G)[sp].m(G)[sp].d(C)[sp].d(A)[sp].d(C)[sp].d(A)[sp].d(T)[sp].d(A)[sp].d(C)[sp].d(C)[sp].d(A)[sp].d(C)[sp].m(A)[sp].m(C)[sp].m(C)[sp].m(C)[sp].m(U)}$$$$”, the TLR7 signal (NF-kB luciferase) (% of resiquimod alone) in data set [1] is 42. For the same substance, in data set [2], the TLR8 potentiation (NF-kB luciferase) (fold of resiquimod alone) was found to be 2.24.
Taken in the same sequence, the figures for “RNA1{m(A)[sp].m(G)[sp].m(A)[sp].m(U)[sp].m(U)[sp].d(A)[sp].d(T)[sp].d(C)[sp].d(T)[sp].d(T)[sp].d(C)[sp].d(T)[sp].d(T)[sp].d(T)[sp].d(T)[sp].m(A)[sp].m(A)[sp].m(U)[sp].m(U)[sp].m(U)}$$$$” were 37.1 and 3.02.
As to “RNA1{m(A)[sp].m(G)[sp].m(U)[sp].m(C)[sp].m(U)[sp].d(C)[sp].d(C)[sp].d(A)[sp].d(T)[sp].d(G)[sp].d(T)[sp].d(C)[sp].d(C)[sp].d(C)[sp].d(A)[sp].m(G)[sp].m(G)[sp].m(C)[sp].m(C)[sp].m(U)}$$$$”, the TLR7 signal (NF-kB luciferase) (% of resiquimod alone) in data set [1] amounted to 35.8. Moreover, the TLR8 potentiation (NF-kB luciferase) (fold of resiquimod alone) in data set [2] was 1.64.
“RNA1{m(G)[sp].m(U)[sp].m(G)[sp].m(G)[sp].m(U)[sp].d(T)[sp].d(A)[sp].d(A)[sp].d(G)[sp].d(T)[sp].d(A)[sp].d(C)[sp].d(A)[sp].d(T)[sp].d(G)[sp].m(A)[sp].m(G)[sp].m(C)[sp].m(U)[sp].m(C)}$$$$” had a TLR7 signal (NF-kB luciferase) (% of resiquimod alone) in data set [1] of 21.6. The TLR8 potentiation (NF-kB luciferase) (fold of resiquimod alone) in data set [2] turned out to be 0.59.
Take “RNA1{m(U)[sp].m(U)[sp].m(G)[sp].m(U)[sp].m(G)[sp].d(A)[sp].d(A)[sp].d(A)[sp].d(A)[sp].d(G)[sp].d(A)[sp].d(T)[sp].d(T)[sp].d(A)[sp].d(T)[sp].m(C)[sp].m(U)[sp].m(U)[sp].m(C)[sp].m(U)}$$$$”: the TLR7 signal (NF-kB luciferase) (% of resiquimod alone) in data set [1] was determined as 35. For the same substance, in data set [2], the TLR8 potentiation (NF-kB luciferase) (fold of resiquimod alone) was determined as 1.05.
Taken in the same sequence, the figures for “RNA1{m(G)[sp].m(G)[sp].m(A)[sp].m(G)[sp].m(A)[sp].d(T)[sp].d(C)[sp].d(A)[sp].d(G)[sp].d(A)[sp].d(T)[sp].d(G)[sp].d(A)[sp].d(G)[sp].d(A)[sp].m(G)[sp].m(G)[sp].m(A)[sp].m(G)[sp].m(C)}$$$$” were 26.3 and 1.05.
For the substance “RNA1{m(G)[sp].m(G)[sp].m(A)[sp].m(U)[sp].m(U)[sp].d(A)[sp].d(A)[sp].d(A)[sp].d(A)[sp].d(C)[sp].d(A)[sp].d(G)[sp].d(A)[sp].d(T)[sp].d(T)[sp].m(A)[sp].m(A)[sp].m(U)[sp].m(A)[sp].m(C)}$$$$”, in data set [1], the TLR7 signal (NF-kB luciferase) (% of resiquimod alone) amounted to 27.2. The TLR8 potentiation (NF-kB luciferase) (fold of resiquimod alone) in data set [2] is 1.16.
On to “RNA1{m(G)[sp].m(A)[sp].m(A)[sp].m(A)[sp].m(A)[sp].d(G)[sp].d(A)[sp].d(T)[sp].d(T)[sp].d(A)[sp].d(T)[sp].d(C)[sp].d(T)[sp].d(T)[sp].d(C)[sp].m(U)[sp].m(U)[sp].m(U)[sp].m(U)[sp].m(A)}$$$$”, for which the TLR7 signal (NF-kB luciferase) (% of resiquimod alone) in data set [1] turned out to be 34.4. The TLR8 potentiation (NF-kB luciferase) (fold of resiquimod alone) in data set [2] is 1.31.
